From the supplement of paper PMC10307832

What was measured:
Assay in all cases: relative viability (nuclei count vs DMSO), 5 days (fraction); higher = more cells survive
[1] = compound: O=C(O)c1ccc2c(c1)nc(Nc1cccc(Cl)c1)c1ccncc12 [Silmitasertib] + CS(=O)(=O)CCNCc1ccc(-c2ccc3ncnc(Nc4ccc(OCc5cccc(F)c5)c(Cl)c4)c3c2)o1 [Lapatinib] (partner 2 µM)
How it was run: (§1)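 Each reported value is a median over duplicate plates. It expresses relative viability: treated-well nuclei count divided by vehicle-well nuclei count. Lung cancer cell lines in 1536-well plates were dosed by pin tool a day after seeding, alone with one drug or with a fixed anchor-drug dose plus five library-drug doses (not always all listed) in √10 steps, and nuclei were counted after 5 days.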

[2] = compound: O=C(O)c1ccc2c(c1)nc(Nc1cccc(Cl)c1)c1ccncc12 [Silmitasertib] + Cc1nc(NC(=O)N2CCC[C@H]2C(N)=O)sc1-c1ccnc(C(C)(C)C(F)(F)F)c1 [Alpelisib] (partner 2 µM)
How it was run: as §1

[3] = compound: O=C(O)c1ccc2c(c1)nc(Nc1cccc(Cl)c1)c1ccncc12 [Silmitasertib] + CC1(C)CCC(c2ccc(Cl)cc2)=C(CN2CCN(c3ccc(C(=O)NS(=O)(=O)c4ccc(N[C@H](CCN5CCOCC5)CSc5ccccc5)c(S(=O)(=O)C(F)(F)F)c4)cc3)CC2)C1 [Navitoclax] (partner 0.5 µM)
How it was run: as §1

[4] = compound: O=C(O)c1ccc2c(c1)nc(Nc1cccc(Cl)c1)c1ccncc12 [Silmitasertib] + CC(C)C[C@H](NC(=O)[C@H](Cc1ccccc1)NC(=O)c1cnccn1)B(O)O [Bortezomib] (partner 0.002 µM)
How it was run: as §1

[5] = compound: O=C(O)c1ccc2c(c1)nc(Nc1cccc(Cl)c1)c1ccncc12 [Silmitasertib] + C[C@]1(O)C[C@@H](c2nc(-c3ccc4ccc(-c5ccccc5)nc4c3)c3c(N)nccn32)C1 [Linsitinib] (partner 1 µM)
How it was run: as §1

[6] = compound: O=C(O)c1ccc2c(c1)nc(Nc1cccc(Cl)c1)c1ccncc12 [Silmitasertib] + C[C@@H](Oc1cc(-c2cnn(C3CCNCC3)c2)cnc1N)c1c(Cl)ccc(F)c1Cl [Crizotinib] (partner 1 µM)
How it was run: as §1

[7] = compound: O=C(O)c1ccc2c(c1)nc(Nc1cccc(Cl)c1)c1ccncc12 [Silmitasertib] + CS(=O)(=O)N1CCN(Cc2cc3nc(-c4cccc5[nH]ncc45)nc(N4CCOCC4)c3s2)CC1 [Pictilisib] (partner 1 µM)
How it was run: as §1

[8] = compound: O=C(O)c1ccc2c(c1)nc(Nc1cccc(Cl)c1)c1ccncc12 [Silmitasertib] + COc1cc2c(Oc3ccc(NC(=O)C4(C(=O)Nc5ccc(F)cc5)CC4)cc3F)ccnc2cc1OCCCN1CCOCC1 [Foretinib] (partner 0.25 µM)
How it was run: as §1

Silmitasertib + Olaparib = compound: O=C(O)c1ccc2c(c1)nc(Nc1cccc(Cl)c1)c1ccncc12 [Silmitasertib] + O=C(c1cc(Cc2n[nH]c(=O)c3ccccc23)ccc1F)N1CCN(C(=O)C2CC2)CC1 [Olaparib] (partner 8 µM)
How it was run: as §1

Silmitasertib = compound: O=C(O)c1ccc2c(c1)nc(Nc1cccc(Cl)c1)c1ccncc12 [Silmitasertib]
How it was run: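 Vehicle-anchored 1536-well plates of lung cancer cell lines, held overnight at 37 °C, were pinned with five library-drug doses (not always all listed) spaced by √10. No medium change followed over the next 5 days, after which the cells were fixed, permeabilised and Hoechst-stained together and imaged at 4×. Nuclei were counted with MetaXpress, and viability is treated-well nuclei over vehicle-well nuclei, taken as a median across plates. Plates passed with control CV below 25% and at least one doubling.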

[9] = compound: O=C(O)c1ccc2c(c1)nc(Nc1cccc(Cl)c1)c1ccncc12 [Silmitasertib] + N=C(N)NC(=N)NCCc1ccccc1 [Phenformin] (partner 250 µM)
How it was run: as §1

[10] = compound: O=C(O)c1ccc2c(c1)nc(Nc1cccc(Cl)c1)c1ccncc12 [Silmitasertib] + Cc1cc(Nc2cc(N3CCN(C)CC3)nc(Sc3ccc(NC(=O)C4CC4)cc3)n2)n[nH]1 [Tozasertib] (partner 0.1 µM)
How it was run: as §1

Silmitasertib + OSI-027 = compound: O=C(O)c1ccc2c(c1)nc(Nc1cccc(Cl)c1)c1ccncc12 [Silmitasertib] + COc1cccc2cc(-c3nc([C@H]4CC[C@H](C(=O)O)CC4)n4ncnc(N)c34)[nH]c12 [OSI-027] (partner 0.5 µM)
How it was run: as §1

[11] = compound: O=C(O)c1ccc2c(c1)nc(Nc1cccc(Cl)c1)c1ccncc12 [Silmitasertib] + CCNC(=O)c1noc(-c2cc(C(C)C)c(O)cc2O)c1-c1ccc(CN2CCOCC2)cc1 [Luminespib] (partner 0.01 µM)
How it was run: as §1

[12] = compound: O=C(O)c1ccc2c(c1)nc(Nc1cccc(Cl)c1)c1ccncc12 [Silmitasertib] + Cc1nc(Nc2ncc(C(=O)Nc3c(C)cccc3Cl)s2)cc(N2CCN(CCO)CC2)n1 [Dasatinib] (partner 0.075 µM)
How it was run: as §1

NCI-H1299
relative viability ([1]; first compound 0.04 µM): 0.989
relative viability ([1]; first compound 0.4 µM): 0.949
relative viability ([1]; first compound 1.265 µM): 0.894
relative viability ([1]; first compound 4 µM): 0.804
relative viability ([2]; first compound 0.04 µM): 1.08
relative viability ([2]; first compound 0.4 µM): 1.04
relative viability ([2]; first compound 1.265 µM): 1.02
relative viability ([2]; first compound 4 µM): 0.826
relative viability ([3]; first compound 0.04 µM): 1.1
relative viability ([3]; first compound 0.4 µM): 1.02
relative viability ([3]; first compound 1.265 µM): 1.06
relative viability ([3]; first compound 4 µM): 1.05
relative viability ([4]; first compound 0.04 µM): 1.08
relative viability ([4]; first compound 0.4 µM): 1.01
relative viability ([4]; first compound 1.265 µM): 0.988
relative viability ([4]; first compound 4 µM): 1.04
relative viability ([5]; first compound 0.04 µM): 0.96
relative viability ([5]; first compound 0.4 µM): 1.01
relative viability ([5]; first compound 1.265 µM): 0.901
relative viability ([5]; first compound 4 µM): 0.587
relative viability ([6]; first compound 0.04 µM): 0.956
relative viability ([6]; first compound 0.4 µM): 0.99
relative viability ([6]; first compound 1.265 µM): 0.994
relative viability ([6]; first compound 4 µM): 0.764
relative viability ([7]; first compound 0.04 µM): 1.07
relative viability ([7]; first compound 0.4 µM): 0.559
relative viability ([7]; first compound 1.265 µM): 0.343
relative viability ([7]; first compound 4 µM): 0.277
relative viability ([8]; first compound 0.04 µM): 1.19
relative viability ([8]; first compound 0.4 µM): 1.08
relative viability ([8]; first compound 1.265 µM): 1.02
relative viability ([8]; first compound 4 µM): 1.13
relative viability (Silmitasertib + Olaparib; first compound 0.04 µM): 0.946
relative viability (Silmitasertib + Olaparib; first compound 0.4 µM): 1.02
relative viability (Silmitasertib + Olaparib; first compound 1.265 µM): 0.872
relative viability (Silmitasertib + Olaparib; first compound 4 µM): 0.803
relative viability (Silmitasertib; 0.04 µM): 1.05
relative viability (Silmitasertib; 0.4 µM): 1.03
relative viability (Silmitasertib; 1.265 µM): 0.945
relative viability (Silmitasertib; 4 µM): 0.834

NCI-H1623
relative viability ([9]; first compound 0.04 µM): 0.563
relative viability ([9]; first compound 0.4 µM): 0.498
relative viability ([9]; first compound 1.265 µM): 0.446
relative viability ([9]; first compound 4 µM): 0.382
relative viability ([10]; first compound 0.04 µM): 0.422
relative viability ([10]; first compound 0.4 µM): 0.392
relative viability ([10]; first compound 1.265 µM): 0.36
relative viability ([10]; first compound 4 µM): 0.371
relative viability (Silmitasertib + OSI-027; first compound 0.04 µM): 0.347
relative viability (Silmitasertib + OSI-027; first compound 0.4 µM): 0.385
relative viability (Silmitasertib + OSI-027; first compound 1.265 µM): 0.368
relative viability (Silmitasertib + OSI-027; first compound 4 µM): 0.357
relative viability ([11]; first compound 0.04 µM): 0.46
relative viability ([11]; first compound 0.4 µM): 0.4
relative viability ([11]; first compound 1.265 µM): 0.355
relative viability ([11]; first compound 4 µM): 0.343
relative viability ([12]; first compound 0.04 µM): 0.576
relative viability ([12]; first compound 0.4 µM): 0.456
relative viability ([12]; first compound 1.265 µM): 0.297
relative viability ([12]; first compound 4 µM): 0.361
relative viability ([8]; first compound 0.04 µM): 0.934
relative viability ([8]; first compound 0.4 µM): 0.572
relative viability ([8]; first compound 1.265 µM): 0.49
relative viability ([8]; first compound 4 µM): 0.536
relative viability (Silmitasertib; 0.04 µM): 1.03
relative viability (Silmitasertib; 0.4 µM): 0.715
relative viability (Silmitasertib; 1.265 µM): 0.689
relative viability (Silmitasertib; 4 µM): 0.693
